Assay results from patent US10624992B2, “Human airway stem cells in lung epithelial engineering” (The General Hospital Corporation, priority 2016, dated 2020).

Columns and labels:
[1] = tested on: BESCs on acellular rat lung scaffolds; experiment: Rat lung scaffold recellularization and ex vivo culture with Notch inhibitors; assay type: cell-based, human; conditions: DAPT 50 nM in vitro 5 days, then 5 days ex vivo on rat lung scaffold without inhibitors
Description: Primary lung epithelial cells (passage 3) were harvested from 2-D culture, counted, and re-introduced to the scaffold airways in solution (20 ml) by gravity. Continuous media perfusion through the pulmonary artery was maintained at 4 ml/min by peristaltic pump and changed daily.
RNA was isolated using the RNEasy Plus (Qiagen). cDNA was transcribed using the Superscript III kit (Invitrogen). Quantitative gene expression was analyzed using Taqman probes and the OneStep Plus system (Applied Biosystems). Expression was normalized to β-Actin expression and relative to cadaveric lung tissue control samples.
Primary Antibodies (1:100): p63 (Santa Cruz, sc-25268), Krt5 (Abcam, ab24647), E-cadherin (BD, 610181), Surfactant Protein-B (Millipore, AB3430), pro-Surfactant Protein-C (Abcam, ab3786), Aquaporin-5 (Abcam, ab92320), Acetylated α-Tubulin (Abcam, ab24610), α2β1 integrin (Abcam, ab24697), α3β1 integrin (Abcam, ab24696), and CD31 (Daki, M082301-2). Secondary antibodies (1:400): Alexafluor 488 and 594 (Life Technologies).

[2] = tested on: primary epithelial basal cells (BESCs); experiment: Notch inhibitor treatment of primary epithelial basal cells in vitro (qPCR, immunofluorescence); assay type: cell-based, human; conditions: 5 days in vitro, compared to No Treatment
Description: (§1) Donor lung peripheral tissue (1-inch cubed) was washed in αMEM and then chopped into ˜¼ inch pieces with scissors and digested in 0.1 mg/ml DNAse (Sigma) and 1.4 mg/ml Pronase (Roche, 11459643001) for 24 hours/4° C. (52). Digested tissue was plated onto uncoated culture flasks in SAGM for 30 minutes/37° C., then non-adherent cells transferred and adhered to human Collagen-IV (Sigma-Aldrich C7521)-coated flasks. Epithelial cells were maintained in SAGM (Lonza, CC-3118) and passaged at 80% confluent (approximately 3-5 days/passage). For cells treated with γ-secretase inhibitors (1) 3-Isobutyl-1-methylxanthine (100 μg/ml IBMX, Sigma-Aldrich, 15879) and (2) N-[(3,5-Difluorophenyl)acetyl]-L-alanyl-2-phenyl]glycine-1,1-dimethylethyl ester (50 μg/ml DAPT, Selleck Chemicals, S2215), media was changed daily. Primary endothelial cells were isolated from the large vessels of donor lungs using the same digestion protocol. The endothelial population was sorted for CD31^+ purity by flow cytometry, and maintained and expanded on Gelatin coated flasks in EGM2 (Lonza, CC-3162) until utilized for human lung recellularization (See FIGS. 7A-B). RNA was isolated using the RNEasy Plus (Qiagen). cDNA was transcribed using the Superscript III kit (Invitrogen). Quantitative gene expression was analyzed using Taqman probes and the OneStep Plus system (Applied Biosystems). […]

[3] = tested on: primary human lung epithelial basal cells; experiment: Effect of ROCK inhibitor on cell phenotype and senescence during cell isolation and passage; assay type: cell-based
Description: as §1, with “FIGS. 8A-C: Effect of ROCK Inhibitor on Cell Phenotype and Senescence. […] Donor” for “Donor”, “RNA was isolated using the RNEasy Plus (Qiagen). cDNA was transcribed using the Superscript III kit (Invitrogen).” left out

[4] = tested on: BESCs; experiment: In vitro culture of BESCs on Collagen IV plates supplemented with TN-C and/or FBN-2; assay type: cell-based, human; conditions: 7 d culture, compared to uncoated or Collagen IV coated wells
Description: 24-well plates were pre-coated with human Collagen IV (10 μg/ml) Sigma-Aldrich C7521) for 2 h at 37° C. After removal of the collagen solution, TN-C (10 μg/ml, R&D 3358-TC-050) or the recombinant N-terminal half (FBN-2-N) or C-terminal half (FBN-2-C) of human FBN-2 (10 μg/ml) (Lin et al., The Journal of biological chemistry. 2002; 277(52):50795-804) were then added to select wells, and incubated for 2 h at 37° C. A total of 1×10^5 BESC were subsequently plated to each well and cultured for 7 d in SAGM.
(§2) mRNA was isolated (Qiagen RNeasy Plus Kit) and transcribed to cDNA (Invitrogen SuperScript III). Gene expression was analyzed using Taqman probes and the OneStep Plus system (Applied Biosystems). Each biological sample was analyzed in experimental replicate (n=2 repeated wells of the qPCR reaction) and the Ct value of each replicate was averaged and handed as n=1 unique biologic sample. Expression for each sample was normalized to β-Actin (ACTA1) gene expression (ΔCt) and relative to cadaveric peripheral lung tissue control samples (ΔΔCt), with fold change calculated by 2-ΔΔCt (Livak and Schmittgen, Methods. 2001; 25(4):402-8). A total of n=3 unique biological samples were analyzed for each reported experiment.
After de-paraffinization and rehydration, 5 μm tissue section were permeabilized with 0.1% Triton X-100 for intracellular antigens, when appropriate. […]

[5] = tested on: BESCs on decellularized rat lung scaffolds; experiment: Ex vivo rat lung recellularization on scaffolds pre-coated with TN-C and/or FBN-2; assay type: cell-based, human; conditions: Day 3 and 7
Description: Decellularized lung scaffolds were pre-coated with (A) PBS control, (B) TN-C, 10 μg/ml, (C) FBN-2, (10 μg/ml each of N- and C-terminal fragment of FBN-2), or (D) TN-C+FBN-2 (10 μg/ml each of TN-C and of N- and C-terminal fragment of FBN-2), by delivery through the trachea. Solution was recycled to the trachea for 90 min at 37° C. A total of 20×10^6 primary lung epithelial cells (passage 3) were then delivered to the scaffold airways in 20 ml of SAGM by gravity. Constant media perfusion of SAGM through the pulmonary artery was maintained at 4 ml/min (pressure 15-20 mmHg) and changed daily. […]
as §2, with “experiment. […]” for “experiment.”

[6] = tested on: BESCs; experiment: In vitro migration assay on protein coatings; assay type: cell-based, human; conditions: over 3 h, compared to Collagen IV coating alone, p<0.001; mixture of N- and C-terminal halves of FBN-2
Description: For migration assay, after coating as above, a small inset (MIDI) was added to the wells prior to cell seeding. A total of 1×10^4 cells were seeded within the insert and incubated for 12 h, before the insert was removed. Bright-field images were taken every 30 min for 180 min to track cell migration. Images were analyzed with ImageJ software (Schneider et al., Nature methods. 2012; 9(7):671-5) to quantify the change in cell-free area.

C[C@H](NC(=O)Cc1cc(F)cc(F)c1)C(=O)NC(C(=O)OC(C)(C)C)c1ccccc1 (stereo partly drawn) [DAPT]
distal type2-like fate after in vitro pre-treatment and inhibitor withdrawal [1]: maintained a distal type2-like fate
SP-B and SP-C gene expression (type II pneumocyte markers) [2]: ineffective alone

CC(C)Cn1c(=O)n(C)c(=O)c2[nH]cnc21 [IBMX, 3-Isobutyl-1-methylxanthine]
SP-B and SP-C gene expression (type II pneumocyte markers) [2]: ineffective alone

C[C@@H](N)[C@H]1CC[C@H](C(=O)Nc2ccncc2)CC1 [Y-27632]
basal cell population, proliferation (Ki67, PCNA) and senescence (CDKN2A) ([3]; during cell isolation and passage): did not enhance the basal cell population, or alter proliferation (Ki67, PCNA) or senescence
gene expression, treated vs untreated ([3]; passage 1 and passage 4, n=3 cell lines, t-test): No significant differences

TN-C: Tenascin-C glycoprotein (R&D 3358-TC-050), used as coating at 10 μg/ml
proliferation (gene expression) [4]: significantly greater proliferation
senescence (gene expression) [4]: less senescence
Ki67 expression of Krt5+ BESCs (immunofluorescence) [5]: significant increase in proliferation
BESC migration rate (change in cell-free area) [6]: Significantly higher rates of BESC migration
